The results in this text go back to ChEMBL document CHEMBL1150338, “Prediction and identification of drug interactions with the human ATP-binding cassette transporter multidrug-resistance associated protein 2 (MRP2; ABCC2)” (J Med Chem, 2008).

Where a name gives a salt, the structure may show the parent alone.

This data set deals with MRP2 (ABCC2) (Homo sapiens, UniProt Q92887). Nature of the data set: in vitro.
Setting [1] is: probe estradiol-17-beta-glucuronide.
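Note: Inside-out membrane vesicles from Sf9 insect cells expressing human MRP2, measuring uptake of the estradiol glucuronide substrate, expressed as percent of untreated control.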

Chain of MRP2 (ABCC2) (Q92887 whole entry): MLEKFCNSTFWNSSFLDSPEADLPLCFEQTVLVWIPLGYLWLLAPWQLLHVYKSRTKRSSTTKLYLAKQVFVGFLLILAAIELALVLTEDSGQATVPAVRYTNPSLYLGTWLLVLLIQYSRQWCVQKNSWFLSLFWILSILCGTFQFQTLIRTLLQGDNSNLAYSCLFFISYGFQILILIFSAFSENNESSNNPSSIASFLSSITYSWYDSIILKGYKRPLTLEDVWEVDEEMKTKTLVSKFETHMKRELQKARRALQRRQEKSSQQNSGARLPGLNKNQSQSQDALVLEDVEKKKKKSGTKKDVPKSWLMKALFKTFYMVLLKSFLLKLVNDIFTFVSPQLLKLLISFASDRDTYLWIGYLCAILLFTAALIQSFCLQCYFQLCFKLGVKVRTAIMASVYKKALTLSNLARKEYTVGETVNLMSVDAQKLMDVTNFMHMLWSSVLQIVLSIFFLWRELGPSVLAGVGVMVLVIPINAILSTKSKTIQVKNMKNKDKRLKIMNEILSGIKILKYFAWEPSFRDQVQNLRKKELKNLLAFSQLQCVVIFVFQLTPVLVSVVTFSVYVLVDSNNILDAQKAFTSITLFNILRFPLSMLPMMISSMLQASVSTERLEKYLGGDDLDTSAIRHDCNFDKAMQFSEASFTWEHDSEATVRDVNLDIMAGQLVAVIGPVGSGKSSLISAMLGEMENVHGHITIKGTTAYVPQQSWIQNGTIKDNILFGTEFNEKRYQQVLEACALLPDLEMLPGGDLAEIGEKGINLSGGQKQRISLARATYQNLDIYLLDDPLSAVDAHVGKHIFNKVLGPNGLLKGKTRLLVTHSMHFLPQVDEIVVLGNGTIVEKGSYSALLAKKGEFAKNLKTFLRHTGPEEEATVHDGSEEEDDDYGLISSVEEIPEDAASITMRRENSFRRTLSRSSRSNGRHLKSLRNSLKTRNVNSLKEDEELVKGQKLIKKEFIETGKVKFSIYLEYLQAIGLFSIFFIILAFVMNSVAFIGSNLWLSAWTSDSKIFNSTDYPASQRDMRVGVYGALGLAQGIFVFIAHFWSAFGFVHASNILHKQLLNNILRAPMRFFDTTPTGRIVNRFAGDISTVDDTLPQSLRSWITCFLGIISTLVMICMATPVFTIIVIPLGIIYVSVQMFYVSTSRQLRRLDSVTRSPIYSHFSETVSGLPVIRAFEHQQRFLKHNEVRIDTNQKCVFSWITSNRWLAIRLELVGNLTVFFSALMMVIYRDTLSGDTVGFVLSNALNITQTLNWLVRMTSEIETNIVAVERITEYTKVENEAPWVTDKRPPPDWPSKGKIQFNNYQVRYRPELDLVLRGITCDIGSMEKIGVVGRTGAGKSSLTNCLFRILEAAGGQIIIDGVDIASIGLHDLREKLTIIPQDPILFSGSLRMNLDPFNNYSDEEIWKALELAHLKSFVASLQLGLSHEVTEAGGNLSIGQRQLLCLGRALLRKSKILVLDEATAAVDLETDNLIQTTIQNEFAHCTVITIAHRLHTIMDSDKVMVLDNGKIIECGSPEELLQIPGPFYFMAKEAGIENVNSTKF
Description: Effect on human MRP2-mediated estradiol-17-beta-glucuronide transport in Sf9 cells inverted membrane vesicles relative to control

On to `CC(C)(C(=O)O)c1ccc(C(O)CCCN2CCC(C(O)(c3ccccc3)c3ccccc3)CC2)cc1` (stereo unspecified) [FEXOFENADINE], for which, under setting [1], the activity is 97%. As for `COc1ccc2c3c([nH]c2c1)[C@H](CC(C)C)N1C(=O)[C@H](CCC(=O)OC(C)(C)C)NC(=O)[C@@H]1C3`, the activity (sf9) was found to be 73%. Consider `CC(=O)CC(c1ccccc1)c1c(O)c2ccccc2oc1=O` (stereo unspecified) [WARFARIN], for which, under setting [1], the activity was determined as 136%. Regarding `CCC(C)(C)C(=O)O[C@H]1C[C@@H](C)C=C2C=C[C@H](C)[C@H](CC[C@@H]3C[C@@H](O)CC(=O)O3)[C@H]21` [SIMVASTATIN], the activity under setting [1] came to 61%. In the case of `COc1ccc2cc([C@H](C)C(=O)O)ccc2c1` [NAPROXEN], the activity (sf9) stood at 92%. As for `O=C(O)[C@H]1O[C@@H](Oc2cc3oc(-c4ccccc4)cc(=O)c3c(O)c2O)[C@H](O)[C@@H](O)[C@@H]1O` [BAICALIN], under setting [1], the activity was 34%. Still for that read-out and setting: to `CC[C@H](C)C(=O)O[C@H]1C[C@H](O)C=C2C=C[C@H](C)[C@H](CC[C@@H](O)C[C@@H](O)CC(=O)O)[C@H]21` [PRAVASTATIN] belongs 135%; to `CC(C(=O)O)c1ccc(-c2ccccc2)c(F)c1` (stereo unspecified) [FLURBIPROFEN], 108%. For `Cc1onc(-c2c(F)cccc2Cl)c1C(=O)N[C@@H]1C(=O)N2[C@@H]1SC(C)(C)[C@@H]2C(=O)O` [FLOXACILLIN], the activity under setting [1] turned out to be 73%. Still for that read-out and setting: the value for `CC(NC(C)(C)C)C(=O)c1cccc(Cl)c1` (stereo unspecified) [BUPROPION] was 106%; that for `O=C1OC2(c3ccc(O)cc3Oc3cc(O)ccc32)c2ccccc21` [FLUORESCEIN] was 82%; that for `C[C@H](CS)C(=O)N1CCC[C@H]1C(=O)O` [CAPTOPRIL] was 104%. On the same count and under the same terms, to `CN(C)CC/C=C1/c2ccccc2Sc2ccc(Cl)cc21` [CHLORPROTHIXENE] belongs 25%; to `CCOC(=O)N1CCC(=C2c3ccc(Cl)cc3CCc3cccnc32)CC1` [LORATADINE], 6%. `CCCNCC(O)COc1ccccc1C(=O)CCc1ccccc1` (stereo unspecified) [PROPAFENONE]: where the note is “sf9”, the activity is 58%. For `CC(C)NCC(O)COc1cccc2ccccc12` (stereo unspecified) [PROPRANOLOL], the activity under setting [1] is 69%. The same measure, in the same setting: the value for `Clc1ccccc1C(c1ccccc1)(c1ccccc1)n1ccnc1` [CLOTRIMAZOLE] was 14%.

`COc1cc2ncnc(Nc3ccc(F)c(Cl)c3)c2cc1OCCCN1CCOCC1` [GEFITINIB]: where the note is “sf9”, the activity turned out to be 74%. In the case of `C[C@]12CC[C@@H]3c4ccc(OS(=O)(=O)O)cc4CC[C@H]3[C@@H]1CCC2=O` [ESTRONE SULFURIC ACID], the activity under setting [1] stood at 300%. Still for that read-out and setting: the value for `CCCN(CCC)S(=O)(=O)c1ccc(C(=O)O)cc1` [PROBENECID] was 110%; that for `COc1ccc2[nH]c([S+]([O-])Cc3ncc(C)c(OC)c3C)nc2c1` (stereo unspecified) [OMEPRAZOLE] was 101%; that for `Cc1ccc(NC(=O)c2ccc(CN3CCN(C)CC3)cc2)cc1Nc1nccc(-c2cccnc2)n1` [IMATINIB MESYLATE] was 74%. Still for that read-out and setting: to `O=C(O)[C@H]1O[C@@H](Oc2ccc([N+](=O)[O-])cc2)[C@H](O)[C@@H](O)[C@@H]1O` belongs 99%; to `Cc1c(OCC(F)(F)F)ccnc1C[S+]([O-])c1nc2ccccc2[nH]1` (stereo unspecified) [LANSOPRAZOLE], 34%; to `CO[C@H]1/C=C/O[C@@]2(C)Oc3c(C)c(O)c4c(O)c(c(/C=N/N5CCN(C)CC5)c(O)c4c3C2=O)NC(=O)/C(C)=C\C=C\[C@H](C)[C@H](O)[C@@H](C)[C@@H](O)[C@@H](C)[C@H](OC(C)=O)[C@@H]1C` [RIFAMPIN], 18%. Still for that read-out and setting: to `C[C@]12C=CC(=O)C=C1CC[C@@H]1[C@@H]2C(=O)C[C@@]2(C)[C@H]1CC[C@]2(O)C(=O)CO` [PREDNISONE] belongs 51%. `CN/C(=N/CCSCc1nc[nH]c1C)NC#N` [CIMETIDINE]: the activity (sf9) came out at 91%. Take `CCCC1O[C@@H]2C[C@H]3[C@@H]4CCC5=CC(=O)C=C[C@]5(C)[C@H]4[C@@H](O)C[C@]3(C)[C@]2(C(=O)CO)O1` (stereo partly specified) [BUDESONIDE]: the activity under setting [1] amounted to 150%. On the same count and under the same terms, the value for `C=C[C@H]1C[N@@]2CC[C@H]1C[C@@H]2[C@@H](O)c1ccnc2ccc(OC)cc12` [QUINIDINE] was 64%; that for `CC1(C)[C@@H](O[C@H]2O[C@H](C(=O)O)[C@@H](O)[C@H](O)[C@H]2O[C@@H]2O[C@H](C(=O)O)[C@@H](O)[C@H](O)[C@H]2O)CC[C@]2(C)[C@H]3C(=O)C=C4[C@@H]5C[C@@](C)(C(=O)O)CC[C@]5(C)CC[C@@]4(C)[C@]3(C)CC[C@@H]12` [GLYCYRRHIZIN] was 5%. On the same count and under the same terms, the value for `COc1ccc2c(c[n+](C)c3c4cc5c(cc4ccc23)OCO5)c1OC` [CHELERYTHRINE CHLORIDE] was 43%; that for `C[n+]1ccc(-c2ccccc2)cc1` was 72%. On the same count and under the same terms, to `O=C1NC(=O)C(c2ccccc2)(c2ccccc2)N1` [PHENYTOIN] belongs 125%. With `CC(=O)Oc1ccc2c(c1)Oc1cc(OC(C)=O)ccc1C21OC(=O)c2cc(C(=O)O)ccc21`, under setting [1], the activity is 7%. As for `CC(C)N(CC[C@](C(N)=O)(c1ccccc1)c1ccccn1)C(C)C` [(S)-DISOPYRAMIDE], under setting [1], the activity amounted to 104%. The same measure, in the same setting: the value for `CN1C(C(=O)Nc2ccccn2)=C(O)c2ccccc2S1(=O)=O` [PIROXICAM] was 100%; that for `C[n+]1cc2c3c(ccc2c2ccc4cc5c(cc4c21)OCO5)OCO3` [SANGUINARIUM CHLORIDE] was 44%; that for `C#Cc1cccc(Nc2ncnc3cc(OCCOC)c(OCCOC)cc23)c1` [ERLOTINIB] was 47%. Same read-out and setting: to `CC(=O)S[C@@H]1CC2=CC(=O)CC[C@]2(C)[C@H]2CC[C@@]3(C)[C@@H](CC[C@@]34CCC(=O)O4)[C@H]12` [SPIRONOLACTONE] belongs 125%.

On to `CC(C)[C@@H]1NC(=O)[C@H](CCCCN)NC(=O)[C@@H](Cc2c[nH]c3ccccc23)NC(=O)[C@H](Cc2ccc(O)cc2)NC(=O)[C@H](C)N(C)C(=O)[C@H](Cc2ccccc2)NC1=O` [SEGLITIDE], for which the activity under setting [1] stood at 94%. Consider `N[C@@H](CCC(=O)N[C@@H](CS)C(=O)NCC(=O)O)C(=O)O` [GLUTATHIONE], for which the activity (sf9) worked out at 116%. For `NS(=O)(=O)c1cc2c(cc1Cl)NCNS2(=O)=O` [HYDROCHLOROTHIAZIDE], under setting [1], the activity is 94%. Still for that read-out and setting: to `Cn1nnnc1SCC1=C(C(=O)O)N2C(=O)[C@@H](NC(=O)[C@H](O)c3ccccc3)[C@H]2SC1` [CEFAMANDOLE] belongs 63%; to `O=C1c2c(O)cc(O)cc2O[C@H](c2ccc(O)c(O)c2)[C@H]1O` [(+)-TAXIFOLIN], 108%; to `C[C@]12CC[C@@H]3c4ccc(O)cc4CC[C@H]3[C@@H]1CC[C@@H]2O` [ESTRADIOL], 123%. The same measure, in the same setting: to `COc1cc2c(c(OC)c1OC)-c1ccc(OC)c(=O)cc1[C@@H](NC(C)=O)CC2` [COLCHICINE] belongs 101%; to `N=C(N)NC(=O)c1nc(Cl)c(N)nc1N` [AMILORIDE], 82%; to `Cc1ccc(S(=O)(=O)NC(=O)NN2CC3CCCC3C2)cc1` (stereo unspecified) [GLICLAZIDE], 174%.

On to `[H]/N=C(/N)N/C(=N/[H])NCCc1ccccc1` [PHENFORMIN], for which, under setting [1], the activity turned out to be 88%. Same read-out and setting: the value for `C[N+](C)(C)C[C@H](O)CC(=O)[O-]` [CARNITINE] was 84%; that for `CCOC(=O)C1=C(C)NC(C)=C(C(=O)OC)C1c1cccc([N+](=O)[O-])c1` (stereo unspecified) [NITRENDIPINE] was 224%; that for `COc1ccc2c(c1OC)C(=O)O[C@@H]2[C@H]1c2c(cc3c(c2OC)OCO3)CCN1C` [NOSCAPINE] was 78%. The same measure, in the same setting: to `CCc1oc2ccccc2c1C(=O)c1cc(Br)c(O)c(Br)c1` [BENZBROMARONE] belongs 11%; to `COCCc1ccc(OCC(O)CNC(C)C)cc1` (stereo unspecified) [METOPROLOL], 72%.

On to `CC(C)(C)NC[C@H](O)COc1nsnc1N1CCOCC1` [TIMOLOL], for which, where the note is “sf9”, the activity turned out to be 91%.

As for `O=C1C[C@@H](c2ccc(O)cc2)Oc2cc(O)cc(O)c21` [NARINGENIN], the activity under setting [1] worked out at 207%. The same measure, in the same setting: the value for `O=C(O)c1cc(/N=N/c2ccc(S(=O)(=O)Nc3ccccn3)cc2)ccc1O` [SULFASALAZINE] was 77%; that for `CC1(C)C(/C=C/C=C/C=C/C=C2\N(CCCCS(=O)(=O)O)c3ccc4ccccc4c3C2(C)C)=[N+](CCCCS(=O)(=O)[O-])c2ccc3ccccc3c21` [INDOCYANINE GREEN] was 5%; that for `CSc1ccc2c(c1)N(CCC1CCCCN1C)c1ccccc1S2` (stereo unspecified) [THIORIDAZINE] was -1%. Same read-out and setting: the value for `CC(C)OC(=O)C(C)(C)Oc1ccc(C(=O)c2ccc(Cl)cc2)cc1` [FENOFIBRATE] was 46%. Regarding `COc1cccc([C@@]2(O)CCCC[C@@H]2CN(C)C)c1` [TRAMADOL], the activity under setting [1] amounted to 89%. On the same count and under the same terms, to `CC1COc2c(N3CCN(C)CC3)c(F)cc3c(=O)c(C(=O)O)cn1c23` (stereo unspecified) [OFLOXACIN] belongs 83%; to `CCc1c2c(nc3ccc(OC(=O)N4CCC(N5CCCCC5)CC4)cc13)-c1cc3c(c(=O)n1C2)COC(=O)[C@]3(O)CC` [IRINOTECAN], 101%.

Take `OCCN(CCO)c1nc(N2CCCCC2)c2nc(N(CCO)CCO)nc(N3CCCCC3)c2n1` [DIPYRIDAMOLE]: the activity under setting [1] amounted to 42%. As to `COc1cccc2c1C(=O)c1c(O)c3c(c(O)c1C2=O)C[C@@](O)(C(=O)CO)C[C@@H]3O[C@H]1C[C@H](N)[C@H](O)[C@H](C)O1` [DOXORUBICIN], the activity (sf9) amounted to 87%. Turning to `O=c1c(O)c(-c2ccc(O)c(O)c2)oc2cc(O)cc(O)c12` [QUERCETIN], the activity under setting [1] worked out at 40%.

As for `O=C(CCCN1CCC(O)(c2ccc(Cl)cc2)CC1)c1ccc(F)cc1` [HALOPERIDOL], the activity under setting [1] worked out at 106%. On the same count and under the same terms, the value for `N[C@@H](Cc1c[nH]c2ccccc12)C(=O)O` [TRYPTOPHAN] was 66%. For `CC(C)NCC(O)c1ccc(NS(C)(=O)=O)cc1` (stereo unspecified) [SOTALOL], for the setting “sf9”, the activity was determined as 96%. As to `O=C1Nc2ccc(Cl)cc2C(c2ccccc2)=NC1O` (stereo unspecified) [OXAZEPAM], the activity under setting [1] was 103%. On the same count and under the same terms, the value for `C[C@H]1O[C@@H](O[C@H]2[C@@H](O)C[C@H](O[C@H]3[C@@H](O)C[C@H](O[C@H]4CC[C@@]5(C)[C@H](CC[C@@H]6[C@@H]5C[C@@H](O)[C@]5(C)[C@@H](C7=CC(=O)OC7)CC[C@]65O)C4)O[C@@H]3C)O[C@@H]2C)C[C@H](O)[C@@H]1O` [DIGOXIN] was 99%.
